Measurements reported in patent US7538221B2, “Polymorphs of racemic, dextrorotatory, and levorotatory enantioners of 1-cyclopropyl-6-fluoro-8-methoxy-7-(4-amino-3,3-dimethylpiperidin-1-yl)-1,4-dihydro-4-oxo-quinoline-3-carboxylic acid hydrochloride and mesylate salts” (The Company of Wockhardt Limited, priority 2003, dated 2009).
Like-named read-outs stand apart in the source and are kept apart here. Blank lines part the entries; values can stand above or below the molecule they belong to.

How the values were obtained:
[1] = Percent relative humidity stability study; format: physicochemical
[2] = Aqueous solubility of salt polymorphs; conditions: water, 25 °C, Aqueous Solubility at 25-30° C. (mg/ml)
[3] = solid kept for 20 days in 78% relative humidity

Compound: COc1c(N2CC[C@@H](N)C(C)(C)C2)c(F)cc2c(=O)c(C(=O)O)cn(C3CC3)c12.Cl [(+) A-1, R-(+)-1-cyclopropyl-6-fluoro-8-methoxy-7-(4-amino-3,3-dimethylpiperidin-1-yl)-1,4-dihydro-4-oxo-quinoline-3-carboxylic acid hydrochloride]
polymorph change on storage (Powder X-ray Diffraction spectrum and aqueous solubility change) [1, 3]: changed to polymorph A-2

Compound: COc1c(N2CCC(N)C(C)(C)C2)c(F)cc2c(=O)c(C(=O)O)cn(C3CC3)c12.CS(=O)(=O)O (racemic) [(±) B-1, (±)-1-cyclopropyl-6-fluoro-8-methoxy-7-(4-amino-3,3-dimethylpiperidin-1-yl)-1,4-dihydro-4-oxo-quinoline-3-carboxylic acid mesylate]
solubility [2]: 80 to 200 mg/mL

Compound: COc1c(N2CC[C@@H](N)C(C)(C)C2)c(F)cc2c(=O)c(C(=O)O)cn(C3CC3)c12.Cl [(+) A-3, R-(+)-1-cyclopropyl-6-fluoro-8-methoxy-7-(4-amino-3,3-dimethylpiperidin-1-yl)-1,4-dihydro-4-oxo-quinoline-3-carboxylic acid hydrochloride]
polymorph change on storage (Powder X-ray Diffraction spectrum and aqueous solubility change) [1, 3]: changed to polymorph A-2

Compound: COc1c(N2CC[C@@H](N)C(C)(C)C2)c(F)cc2c(=O)c(C(=O)O)cn(C3CC3)c12.Cl [(+) A-2, R-(+)-1-cyclopropyl-6-fluoro-8-methoxy-7-(4-amino-3,3-dimethylpiperidin-1-yl)-1,4-dihydro-4-oxo-quinoline-3-carboxylic acid hydrochloride]
thermodynamic stability of polymorph ([1]; from percent relative humidity stability study and aqueous solubility data): thermodynamically stable

Compound: COc1c(N2CC[C@H](N)C(C)(C)C2)c(F)cc2c(=O)c(C(=O)O)cn(C3CC3)c12.Cl [(−) A-3, S-(−)-1-cyclopropyl-6-fluoro-8-methoxy-7-(4-amino-3,3-dimethylpiperidin-1-yl)-1,4-dihydro-4-oxo-quinoline-3-carboxylic acid hydrochloride]
thermodynamic stability of polymorph [1]: thermodynamically stable

Compound: COc1c(N2CCC(N)C(C)(C)C2)c(F)cc2c(=O)c(C(=O)O)cn(C3CC3)c12.Cl (racemic) [(±) A-1, (±)-1-cyclopropyl-6-fluoro-8-methoxy-7-(4-amino-3,3-dimethylpiperidin-1-yl)-1,4-dihydro-4-oxo-quinoline-3-carboxylic acid hydrochloride]
polymorph change on storage (Powder X-ray Diffraction spectrum and aqueous solubility change) [1, 3]: changed to polymorph A-2

Compound: COc1c(N2CC[C@@H](N)C(C)(C)C2)c(F)cc2c(=O)c(C(=O)O)cn(C3CC3)c12.CS(=O)(=O)O [(+) B-1, R-(+)-1-cyclopropyl-6-fluoro-8-methoxy-7-(4-amino-3,3-dimethylpiperidin-1-yl)-1,4-dihydro-4-oxo-quinoline-3-carboxylic acid mesylate]
solubility [2]: 80 to 200 mg/mL

More lines, now with the values ahead:

polymorph change on storage (Powder X-ray Diffraction spectrum and aqueous solubility change) [1]: changed to polymorph A-3
Compound: COc1c(N2CC[C@H](N)C(C)(C)C2)c(F)cc2c(=O)c(C(=O)O)cn(C3CC3)c12.Cl [(−) A-1, S-(−)-1-cyclopropyl-6-fluoro-8-methoxy-7-(4-amino-3,3-dimethylpiperidin-1-yl)-1,4-dihydro-4-oxo-quinoline-3-carboxylic acid hydrochloride]

polymorph change on storage (Powder X-ray Diffraction spectrum and aqueous solubility change) [1, 3]: changed to polymorph A-2
Compound: COc1c(N2CCC(N)C(C)(C)C2)c(F)cc2c(=O)c(C(=O)O)cn(C3CC3)c12.Cl (racemic) [(±) A-3, (±)-1-cyclopropyl-6-fluoro-8-methoxy-7-(4-amino-3,3-dimethylpiperidin-1-yl)-1,4-dihydro-4-oxo-quinoline-3-carboxylic acid hydrochloride]

polymorph change on storage (Powder X-ray Diffraction spectrum and aqueous solubility change) [1]: changed to polymorph A-3
thermodynamic stability of polymorph [1]: thermodynamically stable
Compound: COc1c(N2CC[C@H](N)C(C)(C)C2)c(F)cc2c(=O)c(C(=O)O)cn(C3CC3)c12.Cl [(−) A-2, S-(−)-1-cyclopropyl-6-fluoro-8-methoxy-7-(4-amino-3,3-dimethylpiperidin-1-yl)-1,4-dihydro-4-oxo-quinoline-3-carboxylic acid hydrochloride]

polymorph change on storage (Powder X-ray Diffraction spectrum and aqueous solubility change) [1]: changed to polymorph A-3
Compound: COc1c(N2CC[C@H](N)C(C)(C)C2)c(F)cc2c(=O)c(C(=O)O)cn(C3CC3)c12.Cl [(−) A-4, S-(−)-1-cyclopropyl-6-fluoro-8-methoxy-7-(4-amino-3,3-dimethylpiperidin-1-yl)-1,4-dihydro-4-oxo-quinoline-3-carboxylic acid hydrochloride]
